The values that follow come from patent US9732164B2, “Chitosan-derivative compounds and methods of controlling microbial populations” (SYNEDGEN, INC., priority 2006, dated 2017).

Molecules are shown by their SMILES.

The series deals with HeLa cells. The conditions noted are these: human, 48 h, 1 micromolar.

`CC(=O)O[C@H]1C(=O)[C@@]2(C)[C@H]([C@H](OC(=O)c3ccccc3)[C@]3(O)C[C@H](OC(=O)[C@H](O)[C@@H](NC(=O)c4ccccc4)c4ccccc4)C(C)=C1C3(C)C)[C@]1(OC(C)=O)CO[C@@H]1C[C@@H]2O` [taxol] registered a HeLa cells killed of roughly 100%.
